Test results as given in patent publication US20260184748A1, “COMPOSITIONS COMPRISING OCTADECANEUROPEPTIDES (ODN) AND SYNTHETIC DERIVATIVES THEREOF AND METHODS OF USE FOR MODULATION OF FOOD INTAKE, OBESITY, BODY WEIGHT, NAUSEA, AND EMESIS” (The Trustees of the University of Pennsylvania, priority 2022, published 2026).
Values joined by “and” are separate entries in the source; they are usually repeats but may differ in a detail not shown here. Identical values can stand only once. Like-named read-outs stand apart in the source and are kept apart here. Where a SMILES comes first, the peptide text is derived from it. Where no end group is shown, it is not given here.

Legend:
GPCR panel = assay: gpcrMAX agonist mode (beta-arrestin recruitment), GPCR Biosensor Assays; format: cell-based; parameters: Max Response: unit not given here
[1] = rat, in vivo
[2] = Kaolin intake (pica) in rats; format: in vivo, rat
[3] = shrews; for emetic episodes: intraperitoneal

COc1ccc2[nH]c(I)c(CCNC(C)=O)c2c1 [2-Iodomelatonin]
EC80 (GPCR panel): 2.77 nM | Max Response (GPCR panel): 102.67

CC(C)C[C@H](NC(=O)CNC(=O)[C@@H]1CCCN1C(=O)[C@@H](N)CCCNC(=N)N)C(=O)N[C@H](CC(C)C)C(=O)N[C@@H](CC(=O)O)C(=O)N[C@@H](CC(C)C)C(=O)N[C@@H](CCCCN)C(N)=O [AntOP, Arg-Pro-Gly-Leu-(D-Leu)-Asp-Leu-Lys] (HELM PEPTIDE1{R.P.G.L.[dL].D.L.K.[am]}$$$$V2.0)
effect of pretreatment on Ex-4-induced kaolin intake [1]: did not significantly elevate kaolin intake relative to controls

CCCCCCC(C)(C)c1ccc([C@@H]2C[C@H](O)CC[C@H]2CCCO)c(O)c1 [CP55940]
Max Response (GPCR panel): 104.27 and 99.599

CC(C)C[C@H](NC(=O)[C@H](CCCCN)NC(=O)CNC(=O)[C@H](CC(C)C)NC(=O)[C@@H](NC(=O)[C@@H]1CSSC[C@H](N)C(=O)N[C@@H](CO)C(=O)N[C@@H](CC(N)=O)C(=O)N[C@@H](CC(C)C)C(=O)N[C@@H](CO)C(=O)N[C@@H]([C@@H](C)O)C(=O)N1)C(C)C)C(=O)N[C@@H](CO)C(=O)N[C@@H](CCC(N)=O)C(=O)N[C@@H](CCC(=O)O)C(=O)N[C@@H](CC(C)C)C(=O)N[C@@H](Cc1c[nH]cn1)C(=O)N[C@@H](CCCCN)C(=O)N[C@@H](CC(C)C)C(=O)N[C@@H](CCC(N)=O)C(=O)N[C@H](C(=O)N[C@@H](Cc1ccc(O)cc1)C(=O)N1CCC[C@H]1C(=O)N[C@@H](CCCNC(=N)N)C(=O)N[C@H](C(=O)N[C@@H](CC(N)=O)C(=O)N[C@H](C(=O)NCC(=O)N[C@@H](CO)C(=O)NCC(=O)N[C@H](C(=O)N1CCC[C@H]1C(N)=O)[C@@H](C)O)[C@@H](C)O)[C@@H](C)O)[C@@H](C)O [Calcitonin]
Max Response (GPCR panel): 102.54 and 108.07 and 103.06

CC[C@H](C)[C@H](NC(=O)CNC(=O)[C@H](CCCNC(=N)N)NC(=O)[C@H](CO)NC(=O)[C@H](C)NC(=O)[C@H](Cc1ccc(O)cc1)NC(=O)[C@H](Cc1c[nH]c2ccccc12)NC(=O)[C@H](C)NC(=O)[C@@H]1CCCN1C(=O)[C@H](CC(N)=O)NC(=O)[C@@H](NC(=O)[C@H](CC(=O)O)NC(=O)[C@@H]1CCCN1C(=O)[C@@H](NC(=O)[C@H](CCCNC(=N)N)NC(=O)[C@@H](NC(=O)[C@H](CCC(=O)O)NC(=O)[C@H](CCSC)NC(=O)[C@H](CO)NC(=O)[C@H](Cc1c[nH]cn1)NC(=O)[C@H](CCCNC(=N)N)NC(=O)[C@H](Cc1c[nH]cn1)NC(=O)[C@@H](NC(=O)[C@H](CCCNC(=N)N)NC(=O)[C@@H](N)CO)[C@@H](C)O)[C@@H](C)CC)[C@@H](C)O)[C@@H](C)CC)C(=O)N[C@@H](CCCNC(=N)N)C(=O)N1CCC[C@H]1C(=O)N[C@H](C(=O)NCC(=O)N[C@@H](CCCNC(=N)N)C(=O)N[C@@H](Cc1ccccc1)C(N)=O)C(C)C [PrRP-31]
EC80 (GPCR panel): 10.72 nM | Max Response (GPCR panel): 101.19

DVNTDRPGLLDLK-NH2 [TDN]
kaolin intake ([2]; 4th ventricle injection, HFD-maintained rats): mildly increase kaolin intake in HFD-maintained rats | kaolin intake ([2]; 4th ventricle injection, chow-maintained rats): did not alter kaolin intake in chow rats | kaolin intake ([2]; lateral ventricle injection, chow and HFD rats): did not affect kaolin intake

QATVGDVNTDRPGLLDLK-NH2 [ODN]
emesis ([3]; intraperitoneal 500 μg/kg or 5000 μg/kg): without including emesis | emetic episodes ([3]; high ODN dose): no emetic episodes were observed | emetic episodes ([3]; low ODN dose): one of 9 shrews had an emetic episode
